In patent US9248085B2, “Effective depilatory article” (The Procter & Gamble Company, priority 2011, dated 2016):

Experiment: Hair removal from the skin and skin irritation by thioglycolate salts (statement, no method)
Type: in vivo
Settings: even at low doses

## O=C([O-])CS.[K+] [potassium thioglycolate]
  hair removal from the skin: effective at removing hair from the skin
